Counter-ions that a name gives are not always drawn.

In series [1] the target is T1, recombinant guanylate cyclase reporter cell line (Rattus norvegicus, UniProt P20595).
T1 construct: expressed in transfected cells; CHO by own knowledge of the cited Wunder et al. 2005
T1 sequence (P20595 1-619): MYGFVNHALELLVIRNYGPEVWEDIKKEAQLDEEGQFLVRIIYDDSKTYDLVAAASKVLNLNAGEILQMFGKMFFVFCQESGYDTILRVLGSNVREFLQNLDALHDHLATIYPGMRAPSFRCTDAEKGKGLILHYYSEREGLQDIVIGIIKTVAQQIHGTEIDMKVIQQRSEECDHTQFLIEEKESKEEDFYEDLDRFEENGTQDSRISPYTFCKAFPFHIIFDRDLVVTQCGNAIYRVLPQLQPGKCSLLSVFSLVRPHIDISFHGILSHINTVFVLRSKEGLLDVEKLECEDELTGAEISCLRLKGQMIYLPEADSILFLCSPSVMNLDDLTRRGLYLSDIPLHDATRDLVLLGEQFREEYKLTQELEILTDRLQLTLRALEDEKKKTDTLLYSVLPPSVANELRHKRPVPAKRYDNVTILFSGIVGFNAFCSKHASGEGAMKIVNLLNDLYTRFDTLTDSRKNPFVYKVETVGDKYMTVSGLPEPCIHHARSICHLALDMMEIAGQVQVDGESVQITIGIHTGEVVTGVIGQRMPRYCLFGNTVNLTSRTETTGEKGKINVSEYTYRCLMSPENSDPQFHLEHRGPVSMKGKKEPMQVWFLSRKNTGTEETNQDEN
T1 sequence (P19686 1-690 partner): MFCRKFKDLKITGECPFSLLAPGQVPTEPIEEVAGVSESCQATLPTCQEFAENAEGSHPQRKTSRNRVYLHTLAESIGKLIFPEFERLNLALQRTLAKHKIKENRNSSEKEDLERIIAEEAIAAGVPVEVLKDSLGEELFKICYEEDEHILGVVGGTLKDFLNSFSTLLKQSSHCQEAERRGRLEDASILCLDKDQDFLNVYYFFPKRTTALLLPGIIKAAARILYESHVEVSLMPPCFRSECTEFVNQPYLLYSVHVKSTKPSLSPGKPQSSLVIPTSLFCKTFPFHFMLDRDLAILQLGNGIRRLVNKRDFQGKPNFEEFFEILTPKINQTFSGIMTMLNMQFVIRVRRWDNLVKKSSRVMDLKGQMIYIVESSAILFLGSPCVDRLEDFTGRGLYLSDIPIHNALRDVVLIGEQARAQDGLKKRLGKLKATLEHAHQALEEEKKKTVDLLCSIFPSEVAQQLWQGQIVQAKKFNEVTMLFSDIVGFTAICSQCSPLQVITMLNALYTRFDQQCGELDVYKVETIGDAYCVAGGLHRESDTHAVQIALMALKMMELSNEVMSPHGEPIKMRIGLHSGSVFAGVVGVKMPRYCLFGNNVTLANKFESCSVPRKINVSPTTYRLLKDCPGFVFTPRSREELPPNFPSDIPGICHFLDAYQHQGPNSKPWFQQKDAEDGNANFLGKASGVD
Briefly: Effect on a recombinant guanylate cyclase reporter cell line. It counts as cell-based. As to the method:
B-1. Effect on a Recombinant Guanylate Cyclase Reporter Cell Line
The cellular activity of the compounds according to the invention was determined using a recombinant guanylate cyclase reporter cell line, as described in F. Wunder et al., Anal. Biochem. 339, 104-112 (2005).

Series [2] can be described thus: Pharmacokinetic parameters following intravenous and oral administration in rats. It counts as in vivo, male Wistar rats. Particulars: for clearance: read-out: CLplasma (converted); for half-life: read-out: t½ (converted). As to the method:
(§1) B-2. Determination of Pharmacokinetic Parameters Following Intravenous and Oral Administration
(§2) The pharmacokinetic parameters of the compounds according to the invention were determined in male Wistar rats and/or in female beagles and/or in cynomolgus monkeys and/or in male CD-1 mice. Intravenous administration in the case of mice and rats was carried out by means of a species-specific plasma/DMSO formulation, and in the case of dogs and monkeys by means of a water/PEG400/ethanol formulation. In all species, oral administration of the dissolved substance was performed via gavage, based on a water/PEG400/ethanol formulation.
(§3) An internal standard (which may also be a chemically unrelated substance) was added to the samples of the compounds of the invention, calibration samples and qualifiers, and there followed protein precipitation by means of acetonitrile in excess. Addition of a buffer solution matched to the LC conditions, and subsequent vortexing, was followed by centrifugation at 1000 g. The supernatant was analysed by LC-MS/MS using C18 reversed-phase columns and variable mobile phase mixtures. The substances were quantified via the peak heights or areas from extracted ion chromatograms of specific selected ion monitoring experiments.
(§4) The plasma concentration/time plots determined were used to calculate the pharmacokinetic parameters such as AUC, Cmax, t1/2 (terminal half-life), F (bioavailability), MRT (mean residence time) and CL (clearance), by means of a validated pharmacokinetic calculation program.
(§5) Since the substance quantification was performed in plasma, it was necessary to determine the blood/plasma distribution of the substance in order to be able to adjust the pharmacokinetic parameters correspondingly.
(§6) For this purpose, a defined amount of substance was incubated in K3 EDTA whole blood of the species in question in a rocking roller mixer for 20 min. After centrifugation at 1000 g, the plasma concentration was measured (by means of LC-MS/MS; see above) and determined by calculating the ratio of the Cblood/Cplasma value.

The nature of series [3]: Pharmacokinetic parameters following intravenous and oral administration in dogs. The note with it: for half-life: read-out: t½ (converted). In kind it is in vivo, female beagles. The procedure: as §1, §2, §3, §4, §5, §6
The mark [4] stands for this setting: male, Wistar, rat, plasma, iv, intravenous administration.
The mark [5] stands for this setting: male, Wistar, rat, plasma, iv, intravenous administration, read-out: MRT.
[6] abbreviates: male, Wistar, rat, plasma, po, oral administration (p.o.), read-out: MRT.
Setting [7] is: male, Wistar, rat, plasma, po, oral administration (p.o.).
The mark [8] stands for this setting: female, beagle, dog, plasma, intravenous administration (i.v.).
The mark [9] stands for this setting: female, beagle, dog, plasma, oral administration (p.o.).

With `CC(C)CN1CCN(c2ccc(-c3ccc(Cl)cc3N3CCCC(n4ncc(C(=O)O)c4C(F)F)C3)cc2)CC1` (single isomer, unassigned) [Example 1, 1-[1-{4-Chloro-4′-[4-(2-methylpropyl)piperazin-1-yl][1,1′-biphenyl]-2-yl}piperidin-3-yl]-5-(difluoromethyl)-1H-pyrazole-4-carboxylic acid hydrochloride], in series [1], the 50% effective concentration (EC50) – broadly, the concentration at which the effect is half-maximal – was determined as 9.2 nM and the “MEC (minimum effective concentration)” value came to 2.3 nM. For the same compound, the AUCnorm in series [2] (intravenous administration) turned out to be 1.77 kg·h/L. In series [2] (setting [4]), the clearance is 9.33 mL/min/kg and the half-life is 1.64 h. In addition, in series [2] (setting [5]), the mean residence time (MRT) (in general, the average time that molecules of a dose stay in the body) is 2.24 h. Besides, the mean residence time (MRT) in series [2] (setting [6]) turned out to be 6.28 h. Also, the half-life in series [2] (setting [7]) is 3.24 h. In series [2] (oral administration (p.o.)), this compound displayed an AUCnorm of 0.57 kg·h/L and an F of 31.4%.
Take `CCCN1CCN(c2ccc(-c3ccc(Cl)cc3N3CCCC(n4ncc(C(=O)O)c4C(F)F)C3)cc2)CC1` (single isomer, unassigned) [Example 4, 1-{1-[4-Chloro-4′-(4-propylpiperazin-1-yl)[biphenyl]-2-yl]piperidin-3-yl}-5-(difluoromethyl)-1H-pyrazole-4-carboxylic acid hydrochloride]: in series [1], the EC50 is 3.2 nM and the “MEC (minimum effective concentration)” value was found to be 0.3 nM. In series [2] (intravenous administration), this compound registered an AUCnorm of 1.40 kg·h/L. In addition, in series [2] (setting [4]), the clearance was 12 mL/min/kg and the half-life is 2.09 h. Further, in series [2] (setting [5]), the MRT worked out at 2.62 h. Besides, in series [2] (setting [6]), the MRT worked out at 5.91 h. Moreover, the half-life in series [2] (setting [7]) was 3.02 h. Moreover, in series [2] (oral administration (p.o.)), the AUCnorm is 0.84 kg·h/L and the F was 59.9%.
Turning to `O=C(O)c1cnn(C2CCCN(c3cc(Cl)ccc3-c3ccc(N4CCN(CC5CC5)CC4)cc3)C2)c1C(F)F` (single isomer, unassigned) [Example 5, 1-(1-{4-Chloro-4′-[4-(cyclopropylmethyl)piperazin-1-yl][biphenyl]-2-yl}piperidin-3-yl)-5-(difluoromethyl)-1H-pyrazole-4-carboxylic acid hydrochloride], in series [1], the concentration for a half-maximal effect (EC50) stood at 3.6 nM and the “MEC (minimum effective concentration)” value is recorded as less than 0.3 nM. The AUCnorm in series [2] (intravenous administration) is 1.23 kg·h/L. Besides, in series [2] (setting [4]), the clearance was 13.5 mL/min/kg and the half-life is 2.43 h. Besides, the MRT in series [2] (setting [5]) amounted to 2.88 h. Besides, the MRT in series [2] (setting [6]) turned out to be 7.53 h. For the same compound, the half-life in series [2] (setting [7]) is 3.76 h. In series [2] (oral administration (p.o.)), the AUCnorm is 0.70 kg·h/L and the F is reported as 58.2%.
Take `O=C(O)c1cnn(C2CCCN(c3cc(Cl)ccc3-c3ccc(N4CCN(CC(F)(F)F)CC4)cc3)C2)c1C(F)F` (single isomer, unassigned) [Example 6, 1-[1-[5-Chloro-2-[4-[4-(2,2,2-trifluoroethyl)piperazin-1-yl]phenyl]phenyl]-3-piperidyl]-5-(difluoromethyl)pyrazole-4-carboxylic acid]: in series [1], the EC50 worked out at 19.3 nM and the “MEC (minimum effective concentration)” value is on record as 1.6 nM. Moreover, in series [2] (intravenous administration), the AUCnorm was found to be 2.29 kg·h/L, the CLplasma is 7.33 mL/min/kg, the MRT is reported as 4.16 h and the t½ (usually how long it takes for the measured level to halve) is listed as 5.13 h. In series [2] (oral administration (p.o.)), this compound showed an AUCnorm of 2.11 kg·h/L, an F of 91.7%, a mean residence time (MRT) of 14.2 h and a t½ of 7.37 h.
Turning to `O=C(O)c1cnn(C2CCCN(c3cc(Cl)ccc3-c3ccc(N4CCN(CC(F)(F)F)CC4)cc3)C2)c1C(F)F` (single isomer, unassigned) [Example 7, 1-[1-[5-Chloro-2-[4-[4-(2,2,2-trifluoroethyl)piperazin-1-yl]phenyl]phenyl]-3-piperidyl]-5-(difluoromethyl)pyrazole-4-carboxylic acid], in series [1], the 50% effective concentration (EC50) worked out at 13.7 nM and the “MEC (minimum effective concentration)” value is recorded as 1.6 nM. In series [2] (intravenous administration), this compound returned an AUCnorm of 7.23 kg·h/L and a CLplasma of 2.33 mL/min/kg. The mean residence time MRT in series [2] (setting [5]) worked out at 4.41 h. Moreover, the half-life in series [2] (setting [4]) was 3.83 h. The MRT in series [2] (setting [6]) was determined as 7.32 h. Also, in series [2] (oral administration (p.o.)), the AUCnorm was found to be 4.04 kg·h/L, the F turned out to be 56.1% and the t½ is 3.63 h.
For `CC(C)CN1CCN(c2ccc(-c3ccc(Cl)cc3N3CCCC(n4ncc(C(=O)O)c4C(F)(F)F)C3)cc2)CC1` (single isomer, unassigned) [Example 8, 1-[1-{4-Chloro-4′-[4-(2-methylpropyl)piperazin-1-yl][1,1′-biphenyl]-2-yl}piperidin-3-yl]-5-(trifluoromethyl)-1H-pyrazole-4-carboxylic acid], in series [1], the 50% effective concentration (EC50) amounted to 40 nM and the “MEC (minimum effective concentration)” value turned out to be 6.5 nM.
For the compound `O=C(O)c1cnn(C2CCCN(c3cc(Cl)ccc3-c3ccc(N4CCN(CC(F)(F)F)CC4)cc3)C2)c1C(F)(F)F` (single isomer, unassigned) [Example 11, 1-[1-[5-Chloro-2-[4-[4-(2,2,2-trifluoroethyl)piperazin-1-yl]phenyl]phenyl]-3-piperidyl]-5-(trifluoromethyl)pyrazole-4-carboxylic acid], in series [1], the EC50 was 5.2 nM and the “MEC (minimum effective concentration)” value is 0.6 nM.
Turning to `O=C(O)c1cnn(-c2cccc(-c3cc(Cl)ccc3-c3ccc(N4CCN(CC5CC5)CC4)cc3)n2)c1C(F)(F)F` [Comparative Example 174 (WO2012/058132), reference compound], the AUCnorm in series [2] (intravenous administration) was 0.77 kg·h/L; in series [2] (oral administration (p.o.)), 0.63 kg·h/L; in series [3] (intravenous administration (i.v.)), 5.00 kg·h/L; in series [3] (oral administration (p.o.)) it was 2.08 kg·h/L. The clearance in series [2] (setting [4]) is 21.7 mL/min/kg; in series [3] (female, beagle, dog, plasma, intravenous administration (i.v.), read-out: CLplasma (converted)), 3.33 mL/min/kg. Further, the mean residence time MRT in series [2] (setting [5]) is 2.78 h; in series [2] (setting [6]), 8.4 h; in series [3] (setting [8]), 7.23 h; in series [3] (setting [9]), 6.1 h. The half-life in series [2] (setting [4]) was 2.33 h; in series [2] (setting [7]) it was 3.6 h; in series [3] (setting [8]), 10.8 h; in series [3] (setting [9]) it was 7.05 h. The F in series [2] (oral administration (p.o.)) is 81.8%; in series [3] (oral administration (p.o.)), 41.6%.

Source of the values: patent US20230346777A1, “USE OF SGC ACTIVATORS FOR THE TREATMENT OF OPHTHALMOLOGIC DISEASES” (Bayer Aktiengesellschaft, priority 2020, published 2023).
